# According to US12629356B2, “Expansion of tumor infiltrating lymphocytes with potassium channel agonists and therapeutic uses thereof” (Iovance Biotherapeutics, Inc., priority 2017, dated 2026):
# Experiments:
# [1] = system: normal donor PBMC lines and TIL lines from melanoma tumors; experiment: Kinetic expression of KCa3.1 after activation with anti-CD3 and anti-CD28 with or without SKA-31 (flow cytometry); format: cell-based, human; details: 50 nM SKA-31; PBMCs and melanoma TILs stimulated with anti-CD3 and anti-CD28; day 1, 3 and 7
# Procedure: To study kinetic expression of KCa3.1, wo normal donor PBMC lines and three TIL lines from melanoma tumors were activated with anti-CD3 and anti-CD28 with the KCa3.1 agonist SKA-31 (Formula (2)). PBMCs and TILs at day 0 (baseline) were used as controls for KCa3.1 expression. Normal donor PBMCs and three TIL lines (M004, M10^11, and M1023) were thawed and cultured in TIL culture media (TIL CM) containing RPMI 1640 (Thermo Fisher Scientific, Waltham, MA, USA), 1 mM Glutamax (Thermo Fisher Scientific), 1 mM pyruvate (Thermo Fisher Scientific), 50 μM 2-mercaptoethanol (Thermo Fisher Scientific), and 1× Pen-Strep (Thermo Fisher Scientific), and 10% human AB serum (Gemini Bio-Products, West Sacramento, CA, USA) with IL-2 (6000 IU/mL) (CellGenix Inc., Portsmouth, NH, USA). On the next day, PBMCs were activated with anti-CD3 (Clone CLB-T3/4.E, Cell Sciences) ([…]) and anti-CD28 (Clone 28.2, BioLegend, San Diego, CA, USA) (500 ng/mL) with or without 50 nM SKA-31 (Sigma-Aldrich Co., St. Louis, MO, USA). […] Cells were harvested on day 1, 3, and 7 following activation, stained with anti-CD3 (clone SP34-2, BD Biosciences), anti-CD8 (clone RPA-T8, BioLegend), anti-KCa3.1 (Polyclonal, Alomone Lab), and AmCyan (Thermo Fisher Scientific), and analyzed by flow cytometry using a BD FACS CANTO II system.
# Melanoma TIL lines [2] = experiment: Fold expansion of melanoma TIL lines in 14-day REP with or without SKA-31; format: cell-based, human; details: ten melanoma TIL lines; 50 mM SKA-31 (so in the source); day 14 of REP; p=0.002
# Procedure: (§1) Melanoma TIL lines were propagated using a REP protocol for 14 days with or without the KCa3.1 agonist SKA-31 (Formula (2)). Ten TIL lines (M004, M10^11, M1017, M1020, M1021, M1025, M1030, M1034, M1036, and M1045) were propagated with REP with anti-CD3 OKT-3 antibody (Miltenyi Biotech) (30 ng/mL) using irradiated PBMC feeder cells at ratio of TILs to feeder cells of 1 to 100 in G-REX 24 well plates (Wilson Wolf Manufacturing). Approximately 1×10^6 TILs were used per G-REX 24 well on day 0 in 8 mL of TIL REP media (TIL CM and Aim V media (Thermo Fisher Scientific) at a 1 to 1 ratio) with or without 50 mM of SKA-31. On day 2, the cultures were supplemented with IL-2 (6000 IU/mL). Half of the media was replaced with fresh AIMV media on day 5 with or without 50 mM SKA-31. The REP cultures were supplemented with IL-2 (3000 IU/mL) on day 9 and 12 respectively. On day 14, TTLs were counted and calculated for fold expansion.
# Melanoma TIL lines [3] = experiment: Phenotyping of melanoma TILs (CD27, CD28) at end of REP with or without SKA-31; format: cell-based, human; details: ten melanoma TIL lines, end of 14-day REP, vs TILs without SKA-31
# Procedure: as §1
# Ten melanoma TIL lines were expanded with the REP protocol for 14 days with or without the KCa3.1 agonist SKA-31 (Formula (2)) as in Example 2. At the end of each REP, TILs were harvested and phenotyped with anti-CD3 (clone SP34-2, BD Biosciences), anti-CD28 (clone CD28.2, BD biosciences), and anti-CD27 (M-T271, BD Biosciences) antibodies.
# [4] = system: pre-REP TILs from tumor fragments; experiment: CCR7+ and CD25+ expression in pre-REP TILs grown with IL-2 alone or IL-2 with SKA-31 (flow cytometry); format: cell-based; details: vs no treatment
# Procedure: Three tumors (kidney, estrogen receptor positive (ER^+) breast, and melanoma) were grown with either IL-2 alone or IL-2 with SKA-31 […] to evaluate the performance of a KCa3.1 agonist in the pre-REP stage. The resected tumor samples were cut into 3-5 mm^2 fragments. Four to eight tumor fragments were placed into GREX-10 flask containing TIL CM (previously described) with IL-2 (6000 IU/mL) with or without 100 nM SKA-31. The culture was supplemented with IL-2 every 5 days until harvested. After three weeks, TIL was collected, counted, and stained with anti-CD8 (clone RPA-T8, BioLegend), anti-CD4 (OKT-4, BioLegend), anti-CCR7 (BioLegend G043H7), or AmCyan (Thermo Fisher Scientific), and analyzed by flow cytometry using a BD FACS CANTO II system. The results of CCR7 expression in the three tumor fragments are presented in FIG. 13, with representative flow cytometry results for one of the tumors presented in FIG. 14.
# Further evidence that SKA-31 enhances expression of CD25 and CCR7 was also obtained. Pre-REP TIL were grown with either IL-2 (6000 IU/mL) alone or with SKA-31 and were analyzed after 21 days (n=14; tumor types: breast cancer (8), melanoma (3), kidney (2), ovarian (1)). CCR7^+ expression was assessed by flow cytometry in CD4^+ (FIG. 15, top) and CD8^+subsets (FIG. 15, bottom). CD25^+expression was assessed by flow cytometry in CD4^+(FIG. 17, top) and CD8′ subsets (FIG. 17, bottom) (n=16, breast cancer (8), melanoma (3), kidney (3), ovarian (2)). In both cases, p values represent the difference between no treatment and SKA-31 using student's unpaired T test, and p values<0.05 are considered as statistically significant.
# [5] = system: pre-REP TILs from ovarian and breast cancer tumor fragments; experiment: Absolute cell counts of pre-REP TILs from ovarian and breast tumor fragments with or without SKA-31; format: cell-based; details: 50 nM SKA-31 with IL-2, three weeks, vs IL-2 alone
# Procedure: Tumor fragments from ovarian and breast cancer (triple positive, ER^+/PR^+/HER2^+) tumors were grown in a pre-REP stage with either IL-2 alone or IL-2 with SKA-31 (Formula (2)) at a concentration of 50 nM. The resected tumor samples were cut into 3-5 mm^2 fragments. Four to eight tumor fragments were placed into GREX-10 flasks containing TIL CM (previously described) with IL-2 (6000 IU/mL). The culture was supplemented with IL-2 every 5 days until harvested. After three weeks, TILs were collected, counted, and stained with anti-CD8 antibody (clone RPA-T8, BioLegend), anti-CD4 antibody (OKT-4, BioLegend), anti-CD3 antibody (clone SP34-2, BD Biosciences), and AmCyan (Thermo Fisher Scientific), and analyzed by flow cytometry using a BD FACS CANTO II system.
# [6] = system: TILs co-cultured with melanoma tumor cells; experiment: IFN-γ release (ELISA) from TILs prepared with and without SKA-31 co-cultured with melanoma tumor cells; format: cell-based; details: 24 hours co-culture, 3:1 E:T ratio, vs TILs prepared without SKA-31
# Procedure: FIG. 21 illustrates the results of IFN-γ release as measured by enzyme-linked immunosorbent assay (ELISA). TILs prepared with and without SKA-31 were co-cultured with melanoma tumor cells for 24 hours at a TIL:melanoma cell ratio of 3:1 (i.e., a 3:1 effector:target or E:T ratio). Blocking of the TCR MHC-I was performed using 80 μg/mL of antibody clone W6/32 (BioLegend).
# melanoma cells = experiment: Tumor cell killing by TILs prepared with and without SKA-31 (caspase-3 marker); format: cell-based; details: different E:T ratios
# [7] = breast (ER+/PR+/HER2+) tumor fragments
structure (smiles),measurement,setting,value
"Nc1nc2c(ccc3ccccc32)s1 [SKA-31, naphtho[1,2-d]thiazol-2-ylamine]",KCa3.1 expression,[1],did not alter KCa3.1 expression
same,expansion of TILs in REP relative to control without KCa3.1 agonist,Melanoma TIL lines [2],1.42 fold
same,CD8+CD27+CD28+ T cell subset,Melanoma TIL lines [3]; p=0.002,greater expansion
same,CD8+CD27+ T cell subset,Melanoma TIL lines [3]; p=0.04,greater expansion
same,CD8+CD28+ T cell subset,Melanoma TIL lines [3]; p=0.04,greater expansion
same,CCR7+ expression in CD4+ and CD8+ subsets,"[4]; pre-REP TIL, IL-2 6000 IU/mL with SKA-31, 21 days, n=14 tumors",enhances
same,CD25+ expression in CD4+ and CD8+ subsets,"[4]; pre-REP TIL, IL-2 6000 IU/mL with SKA-31, 21 days, n=16 tumors",enhances
same,CCR7+ expression in CD4+ and CD8+ TILs,"[4]; three tumor fragments (kidney, ER+ breast, melanoma), pre-REP, 100 nM SKA-31 with IL-2, three weeks",increased
same,"absolute cell counts, CD3^mCD4^m TILs",[5]; [7],increased
same,"absolute cell counts, CD3^mCD8^m TILs",[5]; [7],increased
same,"absolute cell counts, CD3^mCD8^m TILs",[5]; ovarian tumor fragments,increased
same,IFN-γ release,[6]; one TIL cell line,statistically significant increase
same,IFN-γ release,[6]; second TIL cell line,no adverse effect
same,tumor killing (caspase-3),melanoma cells; M1032 TIL line,no adverse effects
same,tumor killing (caspase-3),melanoma cells; M1041 TIL line,no adverse effects
